{"source": "patent US20240197742A1", "about": "“Therapeutic Combinations of a CD19 Inhibitor and a BTK Inhibitor” (Acerta Pharma B.V., priority 2015, published 2024)", "key": {"[1]": {"assay": "In vitro metabolism in hepatocytes", "assay_type": "in vitro ADME, and human", "settings": "^4C-labeled Formula (2); mouse, rat, dog, rabbit, monkey, human hepatocytes", "description": "(§1) No unique human metabolite was identified. Preliminary evaluations of metabolism in the plasma, bile, and urine of rats, dogs, and monkeys indicated metabolic processes of oxidation, glutathione binding, and hydrolysis."}, "BTK": {"target": "T1, BTK (Mus musculus, UniProt P35991)", "T1 construct": "MDSCs were purified from tumor bearing PDA mice; from tissue; host or cells: granulocytic and monocytic MDSCs from tumor-bearing PDA mice dosed in vivo", "T1 sequence (P35991 whole entry)": "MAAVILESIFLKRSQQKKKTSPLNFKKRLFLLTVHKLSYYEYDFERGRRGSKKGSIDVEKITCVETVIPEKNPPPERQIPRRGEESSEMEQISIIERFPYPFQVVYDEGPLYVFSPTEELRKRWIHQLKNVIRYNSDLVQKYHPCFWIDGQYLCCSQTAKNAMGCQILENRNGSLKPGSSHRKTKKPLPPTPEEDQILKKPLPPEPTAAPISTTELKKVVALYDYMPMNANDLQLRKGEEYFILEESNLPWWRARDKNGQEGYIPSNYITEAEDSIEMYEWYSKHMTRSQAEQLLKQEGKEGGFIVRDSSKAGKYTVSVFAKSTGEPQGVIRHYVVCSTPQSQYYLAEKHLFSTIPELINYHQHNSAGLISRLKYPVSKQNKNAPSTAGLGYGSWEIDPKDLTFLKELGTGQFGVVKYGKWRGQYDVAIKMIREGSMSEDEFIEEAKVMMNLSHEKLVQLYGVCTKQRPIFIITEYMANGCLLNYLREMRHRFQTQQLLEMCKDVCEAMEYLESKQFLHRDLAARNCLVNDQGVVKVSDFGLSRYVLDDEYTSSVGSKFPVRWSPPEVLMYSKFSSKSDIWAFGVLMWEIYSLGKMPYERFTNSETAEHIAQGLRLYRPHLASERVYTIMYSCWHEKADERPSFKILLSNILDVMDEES", "assay": "Molecular probe assay of irreversible BTK occupancy in MDSCs", "assay_type": "in vivo", "settings": "tumor bearing PDA mice, 15 mg/kg BID; Day 8 at 4 hours post dose (N=5)"}, "GPVI": {"test_system": "GPVI", "assay": "GPVI platelet aggregation (convulxin)", "assay_type": "cell-based, human", "description": "GPVI platelet aggregation was measured for Formula (2) and Formula (10) (ibrutinib). Blood was obtained from untreated humans, and platelets were purified from […] by centrifugation. Cells were resuspended to a final concentration of 350,000/μL in buffer containing 145 mmol/L NaCl, 10 mmol/L HEPES, 0.5 mmol/L Na2HPO4, 5 mmol/L KCl, 2 mmol/L MgCl2, 1 mmol/L CaCl2, and 0.1% glucose, at pH 7.4. Stock solutions of Convulxin (CVX) GPVI were prepared on the day of experimentation and added to platelet suspensions 5 minutes (37° C., 1200 rpm) before the induction of aggregation. Aggregation was assessed with a Chronolog Lumi-Aggregometer (model 540 VS; Chronolog, Havertown, PA) and permitted to proceed for 6 minutes after the addition of agonist. The results are reported as maximum percent change in light transmittance from baseline with platelet buffer used as a reference.\nIn FIG. 72, the results of CVX-induced (250 ng/mL) human platelet aggregation results before and 15 minutes after administration of the BTK inhibitors to 6 healthy individuals are shown."}, "[2]": {"assay": "Glutathione binding and depletion in vitro", "assay_type": "in vitro ADME", "description": "as §1"}, "CD8+ T cells": {"test_system": "CD8+ T cells", "assay": "Cytotoxic T cell (CTL) assay", "assay_type": "cell-based", "settings": "500 nM, relative to vehicle", "description": "Without being bound by any theory, CD8^+ T cells have two primary effector functions: (1) produce large amounts of IFN-γ (which activates macrophages), and (2) cytolytic activity. […] The targets were B lymphoblasts from lipopolysaccharide (LPS) treated cultures. The assay was performed by incubating different ratios of effectors:targets for 4 hours."}, "B cell receptor": {"test_system": "B cell receptor", "assay": "Whole blood potency: CD69 on CD19+ B cells after anti-human IgD", "assay_type": "cell-based", "settings": "blood from four healthy donors, 2 hours with compound, anti-human IgD 10 μg/mL 18 hours, read-out: EC50, CD69 on gated CD19+ B cells in whole blood"}, "CYP enzymes": {"test_system": "CYP enzymes", "assay": "Nonclinical CYP interaction studies", "assay_type": "in vitro ADME", "description": "as §1"}, "CXCL12 and CCL2": {"test_system": "CXCL12 and CCL2", "assay": "Plasma chemokines in CLL patients", "assay_type": "in vivo, human", "settings": "plasma of treated CLL patients"}, "[3]": {"test_system": "MDSC (monocytic) and NK cells", "assay": "Flow cytometry of peripheral blood cell subsets in CLL patients", "assay_type": "in vivo, human", "settings": "patients with decreasing ALC %, doses including 100 mg BID, 200 mg QD, 400 mg QD", "description": "PBMCs were stained with monoclonal antibodies conjugated to fluorescent tags (flourochromes) to identify cell subsets via flow cytometry. Non-viable cells were excluded from the analysis using the dye 7-aminoactinomycin D (7-AAD). To produce the metric of percent change, the following steps were taken. First, each cell subset was defined by hierarchical flow cytometry gating. Then, the change in frequency (between day 1 and day 28) was calculated for each cell subset. MDSC subsets were measured as a % of all myeloid cells. T cell subsets were measured as a % of all CD3^+ cells, and NK cells were measured as a % of all live CD45^+ cells. […] A cycle is 28 days. […] This may include patients who had quickly resolving lymphocytosis and those with no initial lymphocytosis. […] This may include patients who had quickly resolving lymphocytosis and those having no initial lymphocytosis. The effects in FIG. 52 to FIG. 55 are observed in multiple cohorts, at doses including 100 mg BID, 200 mg QD, and 400 mg QD. In FIG. 56 and FIG. 57, the effects on NK cells and MDSC cells are compared to a number of other markers versus % change in ALC at C1D28 and C2D28. These other markers include CD4+ T cells, CD8+ T cells, CD4+/CD8+ T cell ratio, NK-T cells, PD-1+CD4+ T cells, and PD-1+CD8+ T cells. The effects on NK cells and MDSC cells are observed to be much more pronounced than on any of these other markers."}, "regulatory T cell (Treg)": {"test_system": "regulatory T cell (Treg)", "assay": "Treg development from enriched CD4+ T cells", "assay_type": "cell-based", "settings": "anti-TCRβ plus anti-CD28, skewing cytokines, 4 days", "description": "Enriched CD4^+ T cells are plated on 24-well culture dishes that have been precoated 2 hr with 250 μL anti-TCRβ (0.5 μg/mL) plus anti-CD28 (5 μg/mL) at 37° C. in PBS. The cells are then supplemented with media containing BTK inhibitors along with the skewing cytokines as indicated in the following. The Th17 and Treg cultures are grown for 4 days before analysis. The cells are maintained for an additional 3 days with skewing cytokines (Th17; 20 ng/mL IL-6, 0.5 ng/mL TGF-β, 5 μg/mL IL-4, 5 μg/mL IFN-γ and Treg; 0.5 ng/mL TGF-β, 5 μg/mL IL-4, 5 μg/mL IFN-γ) and are supplemented with IL2 as a growth factor."}, "EGFR": {"target": "EGFR (Homo sapiens, UniProt P00533)", "sequence (P00533 25-1210)": "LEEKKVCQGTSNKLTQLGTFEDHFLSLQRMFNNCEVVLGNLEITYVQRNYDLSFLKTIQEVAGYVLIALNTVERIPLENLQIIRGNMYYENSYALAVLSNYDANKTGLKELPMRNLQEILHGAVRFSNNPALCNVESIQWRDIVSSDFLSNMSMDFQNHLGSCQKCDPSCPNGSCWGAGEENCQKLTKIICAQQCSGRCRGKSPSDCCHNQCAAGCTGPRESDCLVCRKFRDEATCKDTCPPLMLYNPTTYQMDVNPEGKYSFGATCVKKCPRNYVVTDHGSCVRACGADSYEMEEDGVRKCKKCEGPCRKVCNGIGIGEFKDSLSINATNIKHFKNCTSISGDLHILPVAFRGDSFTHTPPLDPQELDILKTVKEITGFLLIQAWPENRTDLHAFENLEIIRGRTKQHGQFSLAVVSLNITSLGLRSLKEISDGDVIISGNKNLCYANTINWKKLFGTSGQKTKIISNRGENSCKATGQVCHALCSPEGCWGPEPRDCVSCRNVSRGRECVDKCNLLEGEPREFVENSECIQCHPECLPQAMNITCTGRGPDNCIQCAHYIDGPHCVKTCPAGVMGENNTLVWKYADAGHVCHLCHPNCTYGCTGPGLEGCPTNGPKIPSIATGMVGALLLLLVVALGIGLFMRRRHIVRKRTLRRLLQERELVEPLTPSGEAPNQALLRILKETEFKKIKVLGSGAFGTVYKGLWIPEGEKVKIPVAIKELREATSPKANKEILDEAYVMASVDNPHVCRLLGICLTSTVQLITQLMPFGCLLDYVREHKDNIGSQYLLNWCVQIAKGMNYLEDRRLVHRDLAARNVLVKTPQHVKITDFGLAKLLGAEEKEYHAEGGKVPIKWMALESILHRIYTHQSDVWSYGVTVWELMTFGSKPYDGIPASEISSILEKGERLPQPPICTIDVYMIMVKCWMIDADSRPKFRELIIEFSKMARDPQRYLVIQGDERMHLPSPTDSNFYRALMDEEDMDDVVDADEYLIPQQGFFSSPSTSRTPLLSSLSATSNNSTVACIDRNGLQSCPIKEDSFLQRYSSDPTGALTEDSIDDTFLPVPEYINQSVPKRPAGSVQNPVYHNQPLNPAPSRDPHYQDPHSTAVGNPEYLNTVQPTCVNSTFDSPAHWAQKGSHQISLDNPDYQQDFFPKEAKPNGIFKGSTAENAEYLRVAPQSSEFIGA", "assay": "EGF receptor phosphorylation in A431 cells (phosphoflow)", "settings": "10 μM; A431 human epidermoid cancer cell line"}, "NK cells": {"test_system": "NK cells", "assay": "Whole blood NK cell degranulation with obinutuzumab-opsonised MEC-1 cells", "assay_type": "cell-based, human", "settings": "1 hour pretreatment (10, 1, 0.1 μM), MEC-1 opsonised with obinutuzumab 1 μg/mL, 4 hours, n=3", "procedure": "Degranulation in whole blood was performed as follows. […] Exponentially growing cells were used. On the day of the experiment, 8 mL of blood was drawn from a normal volunteer into a test tube containing desirudin to obtain a final concentration of 50 μg/mL. A white blood cell (WBC) count of whole blood was performed. […] The ibrutinib control and two blinded BTK inhibitors were diluted in X-VIVO 15 serum-free hematopoietic cell medium (Lonza Group, Ltd.) to concentrations of 200 μM, 20 μM and 2 μM. 170 μL aliquots of unmanipulated whole blood were incubated with 10 μL BTK inhibitors or X-VIVO 15 medium for one hour into a plate. […] The samples were placed in a 5% CO2 incubator for 4 hours at 37° C.\nAfter 4 hours, the samples were mixed gently and 50 μL aliquots were removed from each well and placed in fluorescence-activated cell sorting (FACS) test tubes. A 20 μL aliquot of anti-CD56-APC antibody and anti-CD107a-PE antibody was added. The samples were incubated for 20 minutes at room temperature in the dark. An aliquot of 2 mL of FACS lysing solution (BD Biosceinces) was added. The samples were again incubated for 5 minutes, and then centrifuged at 2000 rpm for 5 minutes. Supernatant was discarded and the cell pellet was resuspended in 500 μL of PBS. The samples were analyzed on the flow cytometer for CD107a^+ NK cells (CD56^+)."}, "primary CLL cells": {"test_system": "primary CLL cells", "assay": "ADCC chromium release assay, primary CLL targets", "assay_type": "cell-based, human", "settings": "1 μM; E:T 25:1; variable rituximab concentrations", "description": "All in vitro experiments were performed in triplicate.\nADCC assays were performed as follows. Briefly, target cells (Raji or primary CLL) were labeled by incubation at 37° C. with 100 μCi ^51Cr for 4 hours prior to co-culture with NK cells. Cells were washed, enumerated, and then added in triplicate to prepared 96-well plates containing treated NK cells at an effector:target (E:T) ratio of 25:1. […] Cultures were incubated at 37° C. for 4 hours, and then centrifuged. Supernatants were harvested and ^51Cr release was measured by liquid scintillation counting. All experiments were performed in triplicate."}}, "data": [{"smiles": "CC#CC(=O)N1CCC[C@H]1c1nc(-c2ccc(C(=O)Nc3ccccn3)cc2)c2c(N)nccn12", "note": "[Formula (2), (S)-4-(8-amino-3-(1-(but-2-ynoyl)pyrrolidin-2-yl)imidazo[1,5-α]pyrazin-1-yl)-N-(pyridin-2-yl)benzamide]", "values": [{"measurement": "metabolites in hepatocytes", "setting": "[1]", "result": "two mono-oxidized metabolites and a glutathione conjugate"}, {"measurement": "BTK occupancy in granulocytic and monocytic MDSC compartments", "setting": "BTK", "result": "Complete"}, {"measurement": "effect on GPVI platelet aggregation", "setting": "GPVI; CVX-induced human platelet aggregation", "result": "does not"}, {"measurement": "IC50", "setting": "GPVI; purified human platelets, convulxin (CVX)", "result": 1150, "unit": "nM"}, {"measurement": "glutathione binding and depletion", "setting": "[2]", "result": "binds to glutathione but does not deplete glutathione"}, {"measurement": "CD8+ T cell function as measured by % cytotoxicity", "setting": "CD8+ T cells; 4 days CTL generation", "result": "no effect"}, {"measurement": "CD8+ T cell function as measured by IFN-γ level", "setting": "CD8+ T cells", "result": "no effect"}, {"measurement": "EC50", "setting": "B cell receptor", "result": 8.2, "unit": "nM"}, {"measurement": "drug-drug interaction potential through CYP enzymes", "setting": "CYP enzymes", "result": "very unlikely to cause clinical drug-drug interactions"}, {"measurement": "CCL2 levels", "setting": "CXCL12 and CCL2", "result": "significant decrease"}, {"measurement": "CXCL12 levels", "setting": "CXCL12 and CCL2", "result": "significant decrease"}, {"measurement": "% change in MDSC (monocytic) level over 28 days versus % ALC change", "setting": "[3]; C1D28 and C2D28", "result": "increasing MDSC (monocytic) %"}, {"measurement": "% change in NK cell level over 28 days versus % ALC change", "setting": "[3]; C1D28 or C2D28", "result": "increasing NK cell %"}, {"measurement": "effect on Treg development", "setting": "regulatory T cell (Treg)", "result": "no adverse effect"}, {"measurement": "inhibition of in vitro EGFR phosphorylation", "setting": "EGFR", "result": "no inhibition"}, {"measurement": "reduction of obinutuzumab-stimulated NK cell degranulation (CD56+/CD107a+ NK cells)", "setting": "NK cells", "result": "minimal effect"}, {"measurement": "effect on rituximab-mediated ADCC, primary CLL / autologous tumor cells", "setting": "primary CLL cells", "result": "not inhibited"}]}]}
